Laboratory results as given in patent US20250163022A1, “PARP1 INHIBITORS” (Synnovation Therapeutics, Inc., priority 2021, published 2025).

Target: T1, PARP1 (Homo sapiens, UniProt P09874)
T1 construct: HeLa cells (wide-type with PARP1 gene) were purchased from ATCC; host or cells: HeLa (wild type)
Assay: In-Cell Western measurement of PARylation in PARP1 WT and knockout cells
Type: cell-based
Conditions: HeLa cells (wide-type with PARP1 gene); hydrogen peroxide-induced PARylation; compounds 30 min, then 10 mM hydrogen peroxide 15 min; read-out: HeLa_WT_IC50
From the text: The purpose of this cell-based assay is to measure the potency and selectivity of synthesized PARP inhibitors in suppressing hydrogen peroxide-induced PARylation in cells with and without PARP1 expression. Several cell lines were used in this assay. The human PARP1 knockout HEK-293T cell line (#ab266598) was purchased from Abcam, and its corresponding wide-type control is the human wild-type HEK-293T cell line (#ab255449). The HAP1 isogenic cell lines with and without the PARP1 gene (#HZGHC003943c006) were purchased from Horizon Discovery. HeLa cells (wide-type with PARP1 gene) were purchased from ATCC. Cells were cultured using complete medium containing 10% fetal bovine serum. One day before the assay, cells were seeded in 96-well plates at the density of 20,000 cells per well in 100 uL complete medium. Compounds were dissolved using DMSO and diluted to the working concentrations using complete medium. Cells were pre-treated with compounds for 30 min and then stimulated with 10 mM hydrogen peroxide for 15 min. After stimulation, cells were immediately fixed using ice-cold methanol for 20 min. After fixation, cells were washed using 1×PBST buffer for 3 times, 5 min each time, to eliminate residual methanol. Cells were blocked for 2 h at room temperature in blocking buffer (LI-COR Biosciences, #927-70001). Primary antibody was diluted in diluent buffer (LI-COR Biosciences, #927-75001, 1:200) at 50 uL per well. Cells were incubated with the primary antibody at 4° C. for 18 h. The wells were then washed using 1×PBST for 3 times, 5 min each time. IRDye® 680RD Goat anti-Mouse IgG (H+L) secondary antibody was diluted at 1/2000 using the diluent buffer and added at 100 μL per well. Secondary antibody incubation was for 1 h at room temperature. Cells were then washed using 1×PBST for 3 times, 5 min each time. The signal was detected and analyzed using LI-COR Odyssey DLx Imaging system. Data were collected and further processed using GraphPad Prism for IC50 estimation.

T1 sequence (P09874 whole entry): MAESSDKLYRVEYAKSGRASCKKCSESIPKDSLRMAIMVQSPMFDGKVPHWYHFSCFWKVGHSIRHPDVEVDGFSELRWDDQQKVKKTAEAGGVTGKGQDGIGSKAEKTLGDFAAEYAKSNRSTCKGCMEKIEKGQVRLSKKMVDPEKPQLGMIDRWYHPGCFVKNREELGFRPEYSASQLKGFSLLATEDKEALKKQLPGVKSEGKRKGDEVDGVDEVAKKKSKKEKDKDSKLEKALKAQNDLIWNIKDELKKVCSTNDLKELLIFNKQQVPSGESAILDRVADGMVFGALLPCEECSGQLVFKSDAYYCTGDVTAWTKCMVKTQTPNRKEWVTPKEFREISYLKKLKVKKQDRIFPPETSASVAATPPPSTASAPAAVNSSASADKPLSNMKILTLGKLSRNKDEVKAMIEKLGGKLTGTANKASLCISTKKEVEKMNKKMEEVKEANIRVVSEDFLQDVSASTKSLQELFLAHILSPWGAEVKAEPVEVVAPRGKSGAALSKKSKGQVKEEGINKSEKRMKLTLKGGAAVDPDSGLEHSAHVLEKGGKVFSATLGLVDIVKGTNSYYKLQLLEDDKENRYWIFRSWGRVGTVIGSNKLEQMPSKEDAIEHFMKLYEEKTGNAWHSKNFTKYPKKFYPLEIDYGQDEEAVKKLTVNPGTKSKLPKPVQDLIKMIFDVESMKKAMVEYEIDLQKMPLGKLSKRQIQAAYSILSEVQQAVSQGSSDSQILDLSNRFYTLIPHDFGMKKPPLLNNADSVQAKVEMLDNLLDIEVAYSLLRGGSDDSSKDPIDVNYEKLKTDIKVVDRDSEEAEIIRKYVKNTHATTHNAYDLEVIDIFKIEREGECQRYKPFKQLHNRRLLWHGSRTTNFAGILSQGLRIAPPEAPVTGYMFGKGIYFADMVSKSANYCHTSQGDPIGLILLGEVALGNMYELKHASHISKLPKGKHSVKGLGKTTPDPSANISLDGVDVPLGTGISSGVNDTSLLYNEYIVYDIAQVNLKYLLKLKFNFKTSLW

IC50 [nM]	SMILES
≤ 10	CCN1C(=O)Nc2c(F)c(CN3CCN(c4ccc(C(=O)NC)nc4C)CC3)cc3nc(OC)nc1c23 [Compound I-50, 5-(4-((3-Ethyl-9-fluoro-5-methoxy-2-oxo-2,3-dihydro-1H-pyrimido[4,5,6-de]quinazolin-8-yl)methyl)piperazin-1-yl)-N,6-dimethylpicolinamide]
10 to 100	CCN1C(=O)Nc2c(F)c(CN3CCN(c4ccc(C(=O)NC)nc4C)CC3)cc3c2c1nc(=O)n3C [Compound I-51, 5-(4-((3-Ethyl-9-fluoro-6-methyl-2,5-dioxo-2,3,5,6-tetrahydro-1H-pyrimido[4,5,6-de]quinazolin-8-yl)methyl)piperazin-1-yl)-N,6-dimethylpicolinamide]
≤ 10	CCN1C(=O)Nc2c(F)c(CN3CCN(c4ccc(C(=O)NC)nc4C)CC3)cc3nc(C)nc1c23 [Compound I-52, 5-(4-((3-Ethyl-9-fluoro-5-methyl-2-oxo-2,3-dihydro-1H-pyrimido[4,5,6-de]quinazolin-8-yl)methyl)piperazin-1-yl)-N,6-dimethylpicolinamide]
≤ 10	CCN1C(=O)Nc2c(F)c(CN3CCN(c4ccc(C(=O)NC)nc4C)CC3)cc3c(C)nnc1c23 [Compound I-54, 5-(4-((9-Ethyl-6-fluoro-3-methyl-8-oxo-8,9-dihydro-7H-pyridazino[3,4,5-de]quinazolin-5-yl)methyl)piperazin-1-yl)-N,6-dimethylpicolinamide]
≤ 10	CCN1C(=O)Nc2c(F)c(CN3CCN(c4ccc(C(=O)NC5CC5)nc4C)CC3)cc3ncnc1c23 [Compound I-55, N-cyclopropyl-5-(4-((3-ethyl-9-fluoro-2-oxo-2,3-dihydro-1H-pyrimido[4,5,6-de]quinazolin-8-yl)methyl)piperazin-1-yl)-6-methylpicolinamide]
≤ 10	CCN1C(=O)Nc2c(F)c(CN3CCN(c4ccc(C(=O)NC5CC5)nc4C)CC3)cc3c(C)nnc1c23 [Compound I-56, N-cyclopropyl-5-(4-((9-ethyl-6-fluoro-3-methyl-8-oxo-8,9-dihydro-7H-pyridazino[3,4,5-de]quinazolin-5-yl)methyl)piperazin-1-yl)-6-methylpicolinamide]
≤ 10	CCN1C(=O)Nc2c(F)c(CN3CCN(c4ccc(C(=O)NOC)nc4C)CC3)cc3ncnc1c23 [Compound I-57, 5-(4-((3-Ethyl-9-fluoro-2-oxo-2,3-dihydro-1H-pyrimido[4,5,6-de]quinazolin-8-yl)methyl)piperazin-1-yl)-N-methoxy-6-methylpicolinamide]
≤ 10	CCN1C(=O)Nc2c(F)c(CN3CCN(c4ccc(C(=O)NOCC5CC5)nc4C)CC3)cc3ncnc1c23 [Compound I-58, N-(cyclopropylmethoxy)-5-(4-((3-ethyl-9-fluoro-2-oxo-2,3-dihydro-1H-pyrimido[4,5,6-de]quinazolin-8-yl)methyl)piperazin-1-yl)-6-methylpicolinamide]
≤ 10	CCN1C(=O)Nc2c(F)c(CN3CCN(c4ccc(C(=O)NC5(CO)CC5)nc4C)CC3)cc3ncnc1c23 [Compound I-59, 5-(4-((3-ethyl-9-fluoro-2-oxo-2,3-dihydro-1H-pyrimido[4,5,6-de]quinazolin-8-yl)methyl)piperazin-1-yl)-N-(1-(hydroxymethyl)cyclopropyl)-6-methylpicolinamide]
≤ 10	CCN1C(=O)Nc2c(F)c(CN3CCN(c4ccc(C(=O)N[C@H]5C[C@H](C#N)C5)nc4C)CC3)cc3ncnc1c23 [Compound I-60, N-((1r,3r)-3-cyanocyclobutyl)-5-(4-((3-ethyl-9-fluoro-2-oxo-2,3-dihydro-1H-pyrimido[4,5,6-de]quinazolin-8-yl)methyl)piperazin-1-yl)-6-methylpicolinamide]
≤ 10	CCN1C(=O)Nc2c(F)c(CN3CCN(c4ccc(C(=O)NC5(C#N)CC5)nc4C)CC3)cc3ncnc1c23 [Compound I-62, N-(1-cyanocyclopropyl)-5-(4-((3-ethyl-9-fluoro-2-oxo-2,3-dihydro-1H-pyrimido[4,5,6-de]quinazolin-8-yl)methyl)piperazin-1-yl)-6-methylpicolinamide]
≤ 10	CCN1C(=O)Nc2c(F)c(CN3CCN(c4ccc(C(=O)N[C@H]5CCCOC5)nc4C)CC3)cc3ncnc1c23 [Compound I-63, (S)-5-(4-((3-ethyl-9-fluoro-2-oxo-2,3-dihydro-1H-pyrimido[4,5,6-de]quinazolin-8-yl)methyl)piperazin-1-yl)-6-methyl-N-(tetrahydro-2H-pyran-3-yl)picolinamide]
≤ 10	CCN1C(=O)Nc2c(F)c(CN3CCN(c4ccc(C(=O)N[C@H]5C[C@@H](C#N)C5)nc4C)CC3)cc3ncnc1c23 [Compound I-65, N-((1s,3s)-3-cyanocyclobutyl)-5-(4-((3-ethyl-9-fluoro-2-oxo-2,3-dihydro-1H-pyrimido[4,5,6-de]quinazolin-8-yl)methyl)piperazin-1-yl)-6-methylpicolinamide]
≤ 10	CCN1C(=O)Nc2c(F)c(CN3CCN(c4ccc(C(=O)NC5(COC)CC5)nc4C)CC3)cc3ncnc1c23 [Compound I-66, 5-(4-((3-ethyl-9-fluoro-2-oxo-2,3-dihydro-1H-pyrimido[4,5,6-de]quinazolin-8-yl)methyl)piperazin-1-yl)-N-(1-(methoxymethyl)cyclopropyl)-6-methylpicolinamide]
≤ 10	CCN1C(=O)Nc2c(F)c(CN3CCN(c4ccc(C(=O)N[C@@H]5CCOC5)nc4C)CC3)cc3ncnc1c23 [Compound I-67, (R)-5-(4-((3-ethyl-9-fluoro-2-oxo-2,3-dihydro-1H-pyrimido[4,5,6-de]quinazolin-8-yl)methyl)piperazin-1-yl)-6-methyl-N-(tetrahydrofuran-3-yl)picolinamide]
10 to 100	CCN1C(=O)Nc2c(F)c(CN3CCN(c4ccc(C(=O)N[C@@H]5[C@@H]6COC[C@@H]65)nc4C)CC3)cc3ncnc1c23 [Compound I-69, N-((1R,5S,6s)-3-oxabicyclo[3.1.0]hexan-6-yl)-5-(4-((3-ethyl-9-fluoro-2-oxo-2,3-dihydro-1H-pyrimido[4,5,6-de]quinazolin-8-yl)methyl)piperazin-1-yl)-6-methylpicolinamide]
≤ 10	CCN1C(=O)Nc2c(F)c(CN3CCN(c4ccc(C(=O)N[C@H]5[C@@H]6COC[C@@H]65)nc4C)CC3)cc3ncnc1c23 [Compound I-70, N-((1R,5S,6r)-3-oxabicyclo[3.1.0]hexan-6-yl)-5-(4-((3-ethyl-9-fluoro-2-oxo-2,3-dihydro-1H-pyrimido[4,5,6-de]quinazolin-8-yl)methyl)piperazin-1-yl)-6-methylpicolinamide]
≤ 10	CCN1C(=O)Nc2c(F)c(CN3CCN(c4ccc(C(=O)NC5CN(C)C5)nc4C)CC3)cc3ncnc1c23 [Compound I-71, 5-(4-((3-ethyl-9-fluoro-2-oxo-2,3-dihydro-1H-pyrimido[4,5,6-de]quinazolin-8-yl)methyl)piperazin-1-yl)-6-methyl-N-(1-methylazetidin-3-yl)picolinamide]
≤ 10	CCN1C(=O)Nc2c(F)c(CN3CCN(c4ccc(C(=O)N[C@H]5CCOC5)nc4C)CC3)cc3ncnc1c23 [Compound I-73, (S)-5-(4-((3-ethyl-9-fluoro-2-oxo-2,3-dihydro-1H-pyrimido[4,5,6-de]quinazolin-8-yl)methyl)piperazin-1-yl)-6-methyl-N-(tetrahydrofuran-3-yl)picolinamide]
10 to 100	CCN1C(=O)Nc2c(F)c(CN3CCN(c4ccc(C(=O)N[C@H]5CC[C@@H](C#N)CC5)nc4C)CC3)cc3ncnc1c23 [Compound I-74, N-((1s,4s)-4-cyanocyclohexyl)-5-(4-((3-ethyl-9-fluoro-2-oxo-2,3-dihydro-1H-pyrimido[4,5,6-de]quinazolin-8-yl)methyl)piperazin-1-yl)-6-methylpicolinamide]
10 to 100	CCN1C(=O)Nc2c(F)c(CN3CCN(c4ccc(C(=O)N[C@H]5CC[C@H](C#N)CC5)nc4C)CC3)cc3ncnc1c23 [Compound I-75, N-((1r,4r)-4-cyanocyclohexyl)-5-(4-((3-ethyl-9-fluoro-2-oxo-2,3-dihydro-1H-pyrimido[4,5,6-de]quinazolin-8-yl)methyl)piperazin-1-yl)-6-methylpicolinamide]
10 to 100	CCN1C(=O)Nc2c(F)c(CN3CCN(c4ccc(C(=O)N[C@@H]5CCN(C)C5)nc4C)CC3)cc3ncnc1c23 [Compound I-77, (R)-5-(4-((3-ethyl-9-fluoro-2-oxo-2,3-dihydro-1H-pyrimido[4,5,6-de]quinazolin-8-yl)methyl)piperazin-1-yl)-6-methyl-N-(1-methylpyrrolidin-3-yl)picolinamide]
≤ 10	CCN1C(=O)Nc2c(F)c(CN3CCN(c4ccc(C(=O)N[C@H]5CCN(C)C5)nc4C)CC3)cc3ncnc1c23 [Compound I-78, (S)-5-(4-((3-ethyl-9-fluoro-2-oxo-2,3-dihydro-1H-pyrimido[4,5,6-de]quinazolin-8-yl)methyl)piperazin-1-yl)-6-methyl-N-(1-methylpyrrolidin-3-yl)picolinamide]
